Reference: ChEMBL document CHEMBL1201862, “PubChem BioAssay data set” (2004)
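Assay format: 96-well plates, 48-hour exposure. GI50 is the concentration that inhibits growth by half.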 Active and inactive are the calls of the source. No stated cut-off is given here; in the data, active = GI50 up to about 1.1 µM and inactive = higher.

How the values were obtained:
Experiment in all cases: NCI anticancer screen, dose series, 48 h
[1] = system: PC-3
[2] = system: HCC 2998
[3] = system: SF-539
[4] = system: OVCAR-3
[5] = system: MDA-MB-231
[6] = system: Malme-3M
[7] = system: T47D
[8] = system: LOX IMVI
[9] = system: SNB-19
[10] = system: TK-10
[11] = system: SK-MEL-2
[12] = system: SNB-75
[13] = system: CAKI-1
[14] = system: NCI-H522
[15] = system: MOLT-4
[16] = system: SK-MEL-5
[17] = system: NCI-H460
[18] = system: SW-620
[19] = system: UACC-62
[20] = system: CCRF-CEM

| Structure (SMILES) | GI50 [1] | GI50 [2] | GI50 [3] | GI50 [4] | GI50 [5] | GI50 [6] | GI50 [7] | GI50 [8] | GI50 [9] | GI50 [10] | GI50 [11] | GI50 [12] | GI50 [13] | GI50 [14] | GI50 [15] | GI50 [16] | GI50 [17] | GI50 [18] | GI50 [19] | GI50 [20] |
| --- | --- | --- | --- | --- | --- | --- | --- | --- | --- | --- | --- | --- | --- | --- | --- | --- | --- | --- | --- | --- |
| CC(=O)Oc1ccc(/C=C/C(=O)OCCCOC(=O)/C=C/c2ccc(OC(C)=O)c(OC(C)=O)c2)cc1OC(C)=O | > 100 µM (inactive) | > 100 µM (inactive) | > 100 µM (inactive) | > 100 µM (inactive) | > 100 µM (inactive) | > 100 µM (inactive) | > 100 µM (inactive) | > 100 µM (inactive) | > 100 µM (inactive) | > 100 µM (inactive) | > 100 µM (inactive) | > 100 µM (inactive) | > 100 µM (inactive) | > 100 µM (inactive) | > 100 µM (inactive) | > 100 µM (inactive) | > 100 µM (inactive) | > 100 µM (inactive) | > 100 µM (inactive) |  |
| NCCCC[C@H](N)C(=O)Nc1ccc(-c2nc3ccccc3s2)cc1 | 25.6 µM (inactive) | 26.7 µM (inactive) |  | 20.4 µM (inactive) | 15.1 µM (inactive) | 19.4 µM (inactive) | 33.7 µM (inactive) | 24.8 µM (inactive) | 16.7 µM (inactive) | 57.7 µM (inactive) | 29.1 µM (inactive) | 16.8 µM (inactive) | 37.9 µM (inactive) | 17 µM (inactive) | 16.2 µM (inactive) | 33.4 µM (inactive) | 16.9 µM (inactive) | 16.9 µM (inactive) | 21.7 µM (inactive) | 9.89 µM (inactive) |
| O=C(O)COc1cc(-c2ccccc2F)nc2cc3c(cc12)OCO3 | > 100 µM (inactive) | > 100 µM (inactive) | > 100 µM (inactive) | > 100 µM (inactive) | > 100 µM (inactive) | > 100 µM (inactive) | > 100 µM (inactive) | > 100 µM (inactive) |  | > 100 µM (inactive) | > 100 µM (inactive) | > 100 µM (inactive) | > 100 µM (inactive) |  | > 100 µM (inactive) | > 100 µM (inactive) |  | > 100 µM (inactive) | > 100 µM (inactive) | > 100 µM (inactive) |
| O=C(Cc1ccc2ccccc2c1)NCc1ccc(C(=O)NCCc2ccccc2)cc1 | > 100 µM (inactive) | > 100 µM (inactive) |  | > 100 µM (inactive) | > 100 µM (inactive) | > 100 µM (inactive) | > 100 µM (inactive) | > 100 µM (inactive) | > 100 µM (inactive) | > 100 µM (inactive) | > 100 µM (inactive) | > 100 µM (inactive) | > 100 µM (inactive) | > 100 µM (inactive) |  | > 100 µM (inactive) | > 100 µM (inactive) | > 100 µM (inactive) | > 100 µM (inactive) | 20.3 µM (inactive) |
| CCCCSC1=N/C(=C\c2ccccc2O)C(=O)N1 | 23.4 µM (inactive) | 53.2 µM (inactive) | 41.5 µM (inactive) | > 100 µM (inactive) | 34 µM (inactive) | > 100 µM (inactive) | 32.7 µM (inactive) | 84.3 µM (inactive) | 77.8 µM (inactive) | 76.9 µM (inactive) | 57.8 µM (inactive) | > 100 µM (inactive) | > 100 µM (inactive) | 69 µM (inactive) | 68.9 µM (inactive) |  | 53.2 µM (inactive) | > 100 µM (inactive) | 44.3 µM (inactive) |  |
| O=c1[nH]c(=O)n(C2OC(CO)C(O)C2O)c2nc(-c3ccc(-c4ccccc4)cc3)cnc12 (configuration not stated) | > 100 µM (inactive) | > 100 µM (inactive) | > 100 µM (inactive) |  | > 100 µM (inactive) | > 100 µM (inactive) | > 100 µM (inactive) | > 100 µM (inactive) | > 100 µM (inactive) | > 100 µM (inactive) | > 100 µM (inactive) | > 100 µM (inactive) | > 100 µM (inactive) | > 100 µM (inactive) | > 100 µM (inactive) | 40.6 µM (inactive) | > 100 µM (inactive) | > 100 µM (inactive) | > 100 µM (inactive) | > 100 µM (inactive) |
| C=CCn1c(-c2cc(C(C)(C)C)c(O)c(C(C)(C)C)c2)cs/c1=N\C(P(=O)(O)O)P(=O)(O)O | > 100 µM (inactive) | > 100 µM (inactive) | > 100 µM (inactive) | > 100 µM (inactive) | 35.2 µM (inactive) | > 100 µM (inactive) | > 100 µM (inactive) |  | > 100 µM (inactive) | > 100 µM (inactive) | > 100 µM (inactive) | > 100 µM (inactive) | > 100 µM (inactive) |  | > 100 µM (inactive) |  | > 100 µM (inactive) | > 100 µM (inactive) |  |  |
| CCC1(O)C(=O)OCc2c1cc1n(c2=O)Cc2cc3ccc(C=O)cc3nc2-1 (configuration not stated) | 5.53 µM (inactive) | 4.62 µM (inactive) | 0.551 µM (active) | 4.51 µM (inactive) | 22.4 µM (inactive) | 4.33 µM (inactive) | 0.655 µM (active) | 0.472 µM (active) | 2.04 µM (inactive) | 54.3 µM (inactive) | 13.4 µM (inactive) | 1.36 µM (inactive) | 1.73 µM (inactive) |  | 0.132 µM (active) | 1.83 µM (inactive) | 0.493 µM (active) | 1.03 µM (active) | 0.566 µM (active) | 0.0431 µM (active) |
| COc1c(-c2ccc3c(c2)OCO3)oc2cc(O)cc(O)c2c1=O | 57.3 µM (inactive) | 78.9 µM (inactive) | 39.6 µM (inactive) |  | 97.7 µM (inactive) |  | 12.9 µM (inactive) | 45.4 µM (inactive) | > 100 µM (inactive) | 95.1 µM (inactive) | > 100 µM (inactive) | 13.4 µM (inactive) | 27.7 µM (inactive) | 19.2 µM (inactive) | 21.2 µM (inactive) | 56.5 µM (inactive) | 64 µM (inactive) |  | 46.6 µM (inactive) | 41.4 µM (inactive) |
| Clc1ccccc1-c1nc(-c2ccncc2)no1 [PIFEXOLE] | 78 µM (inactive) | 25.1 µM (inactive) | > 100 µM (inactive) | 44.9 µM (inactive) | 94.4 µM (inactive) | 75.3 µM (inactive) | 29.2 µM (inactive) |  | 96.2 µM (inactive) | 42.8 µM (inactive) | > 100 µM (inactive) | 89.3 µM (inactive) | 57.3 µM (inactive) | 25.8 µM (inactive) | 26.8 µM (inactive) | 22.9 µM (inactive) | 58.7 µM (inactive) | 52.7 µM (inactive) | 73.6 µM (inactive) |  |
| COc1cc(O)c2c(=O)c(OC)c(-c3ccc4c(c3)OCO4)oc2c1 | > 100 µM (inactive) | > 100 µM (inactive) | > 27.4 µM (inactive) |  | > 37.3 µM (inactive) | > 100 µM (inactive) | > 100 µM (inactive) | > 23.2 µM (inactive) | 5.66 µM (inactive) | 36.7 µM (inactive) | 59.7 µM (inactive) | 5.9 µM (inactive) |  | 6.53 µM (inactive) | > 68.9 µM (inactive) | > 35.6 µM (inactive) | 6.01 µM (inactive) | > 100 µM (inactive) | 78.9 µM (inactive) | > 100 µM (inactive) |
